# Test results: patent US12617747B2, “Cannabinoid analogs and methods for their preparation” (InMed Pharmaceuticals Inc., priority 2018, dated 2026)
# Molecular target: T1, human CB2 receptor (Homo sapiens, UniProt P34972)
# T1 construct: HA; expressed in transfected cells
# Assay: CB2 receptor agonist activity in AtT20 cells stably expressing HA-tagged human CB2 receptors
# Format: cell-based
# Conditions: method of Udoh et al. 2019
# From the text: The activity of 5-fluorocannabichromene (5F-CBC) was studied in AtT20 cells stably expressing HA-tagged human CB1 and CB2 receptors, as described by Udoh, et al. (“Cannabichromene is a cannabinoid CB2 receptor agonist.” British Journal of Pharmacology, 2019, doi: 10.1111/bph.14815).
# T1 sequence (P34972 whole entry): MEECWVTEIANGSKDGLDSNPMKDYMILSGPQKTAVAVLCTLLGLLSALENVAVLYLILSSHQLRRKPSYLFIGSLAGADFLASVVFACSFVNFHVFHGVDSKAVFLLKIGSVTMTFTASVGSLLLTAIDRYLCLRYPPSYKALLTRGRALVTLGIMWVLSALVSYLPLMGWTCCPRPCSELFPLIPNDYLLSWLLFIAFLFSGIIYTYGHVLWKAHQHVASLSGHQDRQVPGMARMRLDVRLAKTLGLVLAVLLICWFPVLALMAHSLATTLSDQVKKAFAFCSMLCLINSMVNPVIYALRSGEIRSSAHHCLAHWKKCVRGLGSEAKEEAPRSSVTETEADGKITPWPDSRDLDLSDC
smiles,measurement,value
"CC(C)=CCCC1(C)C=Cc2c(O)cc(CCCCCF)cc2O1 (stereo not shown) [5F-CBC, 7-(5-fluoropentyl)-2-methyl-2-(4-methyl-pent-3-enyl)-2H-chromen-5-ol]",EC50,2.1 µM
